Reference: publication PMC7605239 (Cell, 2020)
pEC50: −log10 of the molar value. Like-named read-outs stand apart in the source and are kept apart here.

Legend:
[1] = biological target: T1, CR518 (chemotactile receptor 518) (Octopus bimaculoides, UniProt A0A0L8FVQ9); test: whole-cell patch clamp dose-response; type: cell-based
T1 sequence (A0A0L8FVQ9 21-399): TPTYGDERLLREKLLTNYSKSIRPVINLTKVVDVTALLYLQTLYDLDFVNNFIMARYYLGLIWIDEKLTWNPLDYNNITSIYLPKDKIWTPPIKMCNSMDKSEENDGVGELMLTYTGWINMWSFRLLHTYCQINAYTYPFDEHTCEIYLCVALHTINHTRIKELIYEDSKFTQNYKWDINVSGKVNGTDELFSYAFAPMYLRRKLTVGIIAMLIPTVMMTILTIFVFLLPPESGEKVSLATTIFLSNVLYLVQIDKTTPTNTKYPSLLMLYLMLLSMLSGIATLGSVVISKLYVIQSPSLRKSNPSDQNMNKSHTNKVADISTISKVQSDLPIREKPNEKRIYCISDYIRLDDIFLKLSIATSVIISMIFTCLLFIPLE

[2] = biological target: T1, CR518 (chemotactile receptor 518); test: whole-cell patch clamp dose-response; type: cell-based; remark: listed apart in the source
[3] = system: CR840 (chemotactile receptor 840); test: whole-cell patch clamp dose-response; type: cell-based, Octopus bimaculoides
[4] = biological target: T1, CR518 (chemotactile receptor 518); test: whole-cell patch clamp screen; type: cell-based

Row | Structure (SMILES) | pEC50 [1] | pEC50 [2] | other results
1 | C=C1CCC[C@]2(C)Cc3occ(C)c3C[C@@H]12 [atractylon] | 4.53 | – | –
2 | Cc1ccc(C(C)C)cc1O [carvacrol] | – | 3.69 | –
3 | CCN(CC)CCCC(C)Nc1ccnc2cc(Cl)ccc12 (stereo not drawn) [chloroquine] | 4.03 | – | pEC50 [3]: 4.99
4 | C=C(C)[C@@H]1CCC2=CC(=O)C[C@@H](C)[C@]2(C)C1 [nootkatone] | – | 4.61 | –
5 | CC1(C)CCC[C@]2(C)[C@@H](C=O)C(C=O)=CC[C@@H]12 [polygodial] | – | – | whole-cell patch clamp screen (1 mM) [4]: CR518 was potently activated by terpenoids, including the physiologically-relevant sesquiterpene polygodial and furanosesquiterpene atractylon
